# Measurements as given in US20130123287A1, “CONTROL AGENT FOR SOFT ROT AND CONTROL METHOD FOR THE SAME” (ISHIHARA SANGYO KAISHA, LTD., priority 2010, published 2013).
# How the values were obtained:
# [1] = system: bacteria causing the soft rot (Erwinia carotovora); experiment: Inhibition test of growth of bacteria causing soft rot, Reference Test Example 4; format: cell-based; conditions: for formed colonies (growth state), grade: PSA medium, 27 degrees Celsius, 2 days
# From the text: An inhibition test of the growth of bacteria causing the soft rot was done, when a control agent was directly applied to the bacteria causing the soft rot. A given volume of each pesticide of kresoxim-methyl (STROBY DF [trade name] manufactured by BASF), thiophanate methyl (Topsin M WP [trade name], manufactured by Nippon Soda Co., Ltd), boscalid (Cantus DF [trade name] manufactured by BASF), procymidone (Sumilex WP [trade name] manufactured by Sumitomo Chemical Agro Co., Ltd.) and streptomycin (Mycin Wettable powder [trade name] manufactured by Hokko Chemical Industry Co., Ltd.) was added together with a suspension of the bacteria causing the soft rot (Erwinia carotovora) to a preliminarily dissolved PSA culture medium (55 degrees Celsius) for subsequent thorough agitation, which was then spread on a plate for culturing at 27 degrees Celsius for 2 days, to examine the growth state. Subsequently, the formed colonies were examined according to the following three grades. • +: at the same level as the level of non-treated lot. Plus or minus: apparently less than the colonies of the non-treated lot. • −: almost no colonies observed.
# [2] = system: soft rot of Chinese cabbage; experiment: Test for controlling soft rot of Chinese cabbage, Example 4 / Comparative Example 4 (field, cultivar Ouraku 60); format: in vivo; conditions: 500 g ai/10 a, 150 L/10 a sprayed onto planting holes before planting, 49 days after start
# From the text: (§1) Frequency of the disease=[sigma(number of plants with the onset of the disease at each severity level*index of the onset of the disease)/(plants examined*4)]*100
# (§2) Disease control value=[1-(frequency of the disease in the treated lot/frequency of the disease in the non-treated lot)]*100
# (§3) • 0: No onset • 1: Onset in some of outer leaves (shippable) • 2: Onset in outer leaves and some of head leaves (by removing damaged parts, the resulting cabbage can be shipped as small cabbage but is ranked as grade B). • 3: Most of head leaves are inflicted with the onset of the disease or with severer damages (not shippable) • 4: Whole cabbage plant is inflicted with the onset of the disease and is dead.
# 442 g/lkresoxim-methyl (STROBY FLOWABLE [trade name], manufactured by BASF) was adjusted to 500 g ai/10a (0.5 g/m^2, 1131 ml Product/10a) as the amount of the active ingredient and to 150 L/10a as the volume of diluent water.
# 70% w/w thiophanate methyl (Topsin M WF [trade name], manufactured by Nippon Soda Co., Ltd.) was adjusted to 1000 g ai/10a (1 g/m^2, 1429 g Product/10a) as the amount of the active ingredient and to 150 L/10a as the volume of diluent water.
# 50% w/w boscalid (Cantus DF [trade name], manufactured by BASF) was adjusted to 500 g ai/10a (0.5 g/m^2; 1000 g Product/10a) as the amount of the active ingredient and to 150 L/10a as the volume of diluent water.
# 50% w/w procymidone (Sumilex WP [trade name], manufactured by Sumitomo Chemical Agro) was adjusted to 500 g ai/10a (0.5 g/m^2, 1000 g Product/10a) as the amount of the active ingredient and to 150 L/10a as the volume of diluent water.
# 400 g/l iprodione (Rovral 500 Aqua [trade name], manufactured by Bayer Crop Science Co., Ltd.) was adjusted to 500 g ai/10a (0.5 g/m^2, […] Product/10a) as the amount of the active ingredient and to 150 L/10a as the volume of diluent water.
# 200 g/l fludioxonil (Seibia FLOWABLE [trade name], manufactured by Syngenta Japan K.K.) was adjusted to 500 g ai/10a (0.5 g/m^2, 2500 ml Product/10a) as the amount of the active ingredient and to 150 L/10a as the volume of diluent water.
# 400 g/l mepanipyrim (Flupika PLOWABLE [trade name], manufactured by Nippon Soda Co., Ltd.) was adjusted to 500 g ai/10a (0.5 g/m^2, 1250 ml Product/10a) as the amount of the active ingredient and to 150 L/10a as the volume of diluent water.
# After spreading an agricultural mulch-sheet and opening planting holes (diameter of about 5 cm) for permanent planting through the mulch-sheet, the spray solutions prepared as described above were sprayed onto the planting holes such that the amount of treated active ingredient of each spray solution was 0.5 g/m^2 (150 L per 10a), followed by air-drying; subsequently, seedlings of Chinese cabbage (cultivar: Ouraku 60) grown for 4 weeks in cell mold trays (128 holes/nursery box) were planted such that 30 seedlings were planted in each test lot having an area of 2.5 m^2 with two replications.
# Preparation was performed by diluting a chemical solution (Agrimycin WP100 [trade name] manufactured by Pfizer) containing oxytetracycline at 1.5% and streptomycin sulfate salt at 18.8% with water to 1/1500.
# In a field spread with the agricultural mulch-sheet, Chinese cabbage seedlings (cultivar: Ouraku 60) grown by the same method as in Example 4 were planted by the same method as in Example 4, for spraying the spray solution prepared above in (1) (at each spray volume of 300 L/10a) twice (28 days and 42 days after the planting of the seedlings) on the stems and leaves.
# (§4) 49 days after the start of the tests, all the plants in each lot were examined about the severity level of the disease to assess the frequency of the disease and the disease control value. Herein, the frequency of the disease and the disease control value were determined in the same manner as described above. Because soft rot is a disease with damages hardly controlled, herein, even a chemical at the level C determined by the tests of the effects can practically be used.
# [3] = system: soft rot of Chinese cabbage; experiment: Test for controlling soft rot of Chinese cabbage, Example 3 / Comparative Example 3 (field, cultivar Muso); format: in vivo; conditions: 500 g ai/10 a, 150 L/10 a sprayed onto planting holes before planting, 51 days after start
# From the text: as §1, §2, §3
# 442 g/l kresoxim-methyl (STROBY FLOWABLE [trade name], manufactured by BASF) was adjusted to 500 g ai/10a (0.5 g/m^2, 1131 ml Product/10a) as the amount of the active ingredient and to 150 L/10a as the volume of diluent water. […]
# as §4, with “51” for “49”, “The” for “Herein, the”
smiles,measurement,setting,value
"CO/N=C(/C(=O)OC)c1ccccc1COc1ccccc1C [Kresoxim-methyl, methyl=(E)-methoxyimino[2-(o-tolyloxymethyl)phenyl]acetate]","formed colonies (growth state), grade",[1]; 100 ppm active ingredient,"+, +"
same,"formed colonies (growth state), grade",[1]; 500 ppm active ingredient,"+, +"
same,"formed colonies (growth state), grade",[1]; 1000 ppm active ingredient,"+, +"
same,inhibition of growth of Erwinia carotovora (in words),"[1]; active ingredient concentration of 1,000 ppm",never inhibited the growth
same,Determination of effect,[2],C (C: Effective at low level (21 to 40 disease control value))
same,Determination of effect,[3],C (C: Effective at low level (21 to 40 disease control value))
